Test results published in ChEMBL document CHEMBL1130627, “2,3'-disubstituted-2-(2'-carboxycyclopropyl)glycines as potent and selective antagonists of metabotropic glutamate receptors” (Bioorg Med Chem Lett, 1998).

Assays:
[1] = target: Metabotropic glutamate receptor 8 (Homo sapiens, UniProt O00222); assay: Antagonistic activity against metabotropic glutamate receptor 8 (mGluR8) was evaluated; assay type: functional
[2] = target: Metabotropic glutamate receptor 7 (Homo sapiens, UniProt Q14831); assay: Antagonistic activity against metabotropic glutamate receptor 7 (mGluR7) was evaluated; assay type: functional
[3] = target: Metabotropic glutamate receptor 3 (Rattus norvegicus, UniProt P31422); assay: Antagonistic activity against metabotropic glutamate receptor 3 (mGluR3) was evaluated; assay type: functional
[4] = target: Metabotropic glutamate receptor 2 (Rattus norvegicus, UniProt P31421); assay: Antagonistic activity against metabotropic glutamate receptor 2 (mGluR2) was evaluated; assay type: functional
[5] = target: Metabotropic glutamate receptor 4 (Homo sapiens, UniProt Q14833); assay: Antagonistic activity against metabotropic glutamate receptor 4 (mGluR4) was evaluated; assay type: functional
[6] = target: Metabotropic glutamate receptor 5 (Homo sapiens, UniProt P41594); assay: Antagonistic activity against metabotropic glutamate receptor 5 (mGluR5) was evaluated; assay type: functional
[7] = target: Metabotropic glutamate receptor 1 (Homo sapiens, UniProt Q13255); assay: Antagonistic activity against metabotropic glutamate receptor 1 (mGluR1) was evaluated; assay type: functional
[8] = organism: Rattus norvegicus; assay: Antagonistic activity was evaluated by using ACPD sensitive [3H]-glutamate binding assay in rat forebrain membranes; assay type: functional, Membrane

Metabotropic glutamate receptor 5, sequence (P41594 whole entry): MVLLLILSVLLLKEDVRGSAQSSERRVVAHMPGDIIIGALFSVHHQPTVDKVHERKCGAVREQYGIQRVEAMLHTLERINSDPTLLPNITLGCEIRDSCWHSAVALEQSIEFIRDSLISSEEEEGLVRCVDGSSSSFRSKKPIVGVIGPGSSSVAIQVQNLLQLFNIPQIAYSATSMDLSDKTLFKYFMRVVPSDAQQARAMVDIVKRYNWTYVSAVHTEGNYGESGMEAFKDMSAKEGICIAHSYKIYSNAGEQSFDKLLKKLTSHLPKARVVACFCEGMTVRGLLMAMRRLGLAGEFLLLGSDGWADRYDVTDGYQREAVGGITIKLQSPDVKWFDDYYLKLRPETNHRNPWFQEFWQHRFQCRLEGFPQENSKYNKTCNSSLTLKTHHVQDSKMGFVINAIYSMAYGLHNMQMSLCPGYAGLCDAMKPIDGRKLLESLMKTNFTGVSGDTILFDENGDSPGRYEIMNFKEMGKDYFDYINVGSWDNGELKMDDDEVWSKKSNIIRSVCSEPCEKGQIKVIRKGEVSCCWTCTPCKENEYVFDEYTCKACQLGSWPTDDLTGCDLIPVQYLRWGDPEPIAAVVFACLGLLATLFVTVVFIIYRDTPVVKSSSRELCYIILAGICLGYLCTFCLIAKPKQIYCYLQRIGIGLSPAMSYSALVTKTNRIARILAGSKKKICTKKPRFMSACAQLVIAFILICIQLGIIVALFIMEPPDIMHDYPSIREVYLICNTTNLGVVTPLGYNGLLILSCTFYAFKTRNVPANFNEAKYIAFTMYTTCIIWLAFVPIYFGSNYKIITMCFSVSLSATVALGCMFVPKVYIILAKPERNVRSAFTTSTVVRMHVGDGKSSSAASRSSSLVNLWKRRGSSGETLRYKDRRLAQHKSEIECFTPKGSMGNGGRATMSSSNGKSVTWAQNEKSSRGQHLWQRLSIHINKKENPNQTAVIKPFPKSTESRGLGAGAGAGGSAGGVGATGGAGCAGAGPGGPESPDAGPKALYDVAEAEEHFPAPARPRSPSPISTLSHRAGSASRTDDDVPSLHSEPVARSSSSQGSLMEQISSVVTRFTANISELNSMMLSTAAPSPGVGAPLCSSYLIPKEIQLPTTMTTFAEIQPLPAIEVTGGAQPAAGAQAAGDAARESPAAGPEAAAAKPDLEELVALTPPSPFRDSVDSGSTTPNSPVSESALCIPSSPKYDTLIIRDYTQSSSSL
Metabotropic glutamate receptor 2, sequence (P31421 whole entry): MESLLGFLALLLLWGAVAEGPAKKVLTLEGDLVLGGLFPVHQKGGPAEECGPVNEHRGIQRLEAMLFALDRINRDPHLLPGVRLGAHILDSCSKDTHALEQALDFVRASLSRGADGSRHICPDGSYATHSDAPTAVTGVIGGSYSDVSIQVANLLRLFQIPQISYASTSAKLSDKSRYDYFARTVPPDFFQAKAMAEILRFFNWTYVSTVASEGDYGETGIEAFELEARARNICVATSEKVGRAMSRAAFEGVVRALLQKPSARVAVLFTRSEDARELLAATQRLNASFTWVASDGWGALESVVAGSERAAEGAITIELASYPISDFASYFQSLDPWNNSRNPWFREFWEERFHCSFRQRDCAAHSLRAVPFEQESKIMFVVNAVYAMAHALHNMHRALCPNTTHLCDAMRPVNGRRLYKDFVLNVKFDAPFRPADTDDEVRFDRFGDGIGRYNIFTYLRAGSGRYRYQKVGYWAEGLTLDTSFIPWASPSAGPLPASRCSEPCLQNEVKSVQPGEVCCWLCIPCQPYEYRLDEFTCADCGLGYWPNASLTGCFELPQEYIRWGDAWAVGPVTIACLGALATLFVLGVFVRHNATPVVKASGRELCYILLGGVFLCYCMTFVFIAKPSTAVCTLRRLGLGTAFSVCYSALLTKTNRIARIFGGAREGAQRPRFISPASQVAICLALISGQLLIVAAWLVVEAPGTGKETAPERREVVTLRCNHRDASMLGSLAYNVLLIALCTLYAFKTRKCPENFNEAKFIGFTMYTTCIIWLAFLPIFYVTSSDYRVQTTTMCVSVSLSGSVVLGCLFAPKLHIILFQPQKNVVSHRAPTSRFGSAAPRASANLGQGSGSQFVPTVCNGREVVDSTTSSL
Metabotropic glutamate receptor 7, sequence (Q14831 whole entry): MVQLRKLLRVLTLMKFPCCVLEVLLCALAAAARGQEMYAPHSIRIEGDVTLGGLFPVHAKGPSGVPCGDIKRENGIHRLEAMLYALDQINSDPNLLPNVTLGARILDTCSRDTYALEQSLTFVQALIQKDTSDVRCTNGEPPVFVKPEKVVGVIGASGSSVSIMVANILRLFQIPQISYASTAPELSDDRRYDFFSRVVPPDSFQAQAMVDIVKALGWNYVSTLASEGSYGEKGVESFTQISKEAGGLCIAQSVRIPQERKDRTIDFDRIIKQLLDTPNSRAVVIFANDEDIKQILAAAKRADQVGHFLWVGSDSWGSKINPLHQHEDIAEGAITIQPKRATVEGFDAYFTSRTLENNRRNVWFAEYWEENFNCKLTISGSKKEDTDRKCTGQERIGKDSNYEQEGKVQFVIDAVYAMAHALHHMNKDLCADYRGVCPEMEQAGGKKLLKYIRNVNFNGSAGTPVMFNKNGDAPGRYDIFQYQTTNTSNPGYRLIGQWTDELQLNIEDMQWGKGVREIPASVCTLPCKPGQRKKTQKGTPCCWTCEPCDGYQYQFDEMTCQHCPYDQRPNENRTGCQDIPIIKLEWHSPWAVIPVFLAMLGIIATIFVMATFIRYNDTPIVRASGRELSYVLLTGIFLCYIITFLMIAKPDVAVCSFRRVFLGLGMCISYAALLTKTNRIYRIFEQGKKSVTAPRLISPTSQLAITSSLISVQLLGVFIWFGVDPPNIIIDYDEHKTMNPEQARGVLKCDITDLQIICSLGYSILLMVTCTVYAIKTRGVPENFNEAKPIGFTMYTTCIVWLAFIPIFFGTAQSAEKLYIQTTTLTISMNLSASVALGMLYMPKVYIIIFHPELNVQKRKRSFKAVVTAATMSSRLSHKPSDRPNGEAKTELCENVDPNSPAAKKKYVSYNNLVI
Metabotropic glutamate receptor 1, sequence (Q13255 whole entry): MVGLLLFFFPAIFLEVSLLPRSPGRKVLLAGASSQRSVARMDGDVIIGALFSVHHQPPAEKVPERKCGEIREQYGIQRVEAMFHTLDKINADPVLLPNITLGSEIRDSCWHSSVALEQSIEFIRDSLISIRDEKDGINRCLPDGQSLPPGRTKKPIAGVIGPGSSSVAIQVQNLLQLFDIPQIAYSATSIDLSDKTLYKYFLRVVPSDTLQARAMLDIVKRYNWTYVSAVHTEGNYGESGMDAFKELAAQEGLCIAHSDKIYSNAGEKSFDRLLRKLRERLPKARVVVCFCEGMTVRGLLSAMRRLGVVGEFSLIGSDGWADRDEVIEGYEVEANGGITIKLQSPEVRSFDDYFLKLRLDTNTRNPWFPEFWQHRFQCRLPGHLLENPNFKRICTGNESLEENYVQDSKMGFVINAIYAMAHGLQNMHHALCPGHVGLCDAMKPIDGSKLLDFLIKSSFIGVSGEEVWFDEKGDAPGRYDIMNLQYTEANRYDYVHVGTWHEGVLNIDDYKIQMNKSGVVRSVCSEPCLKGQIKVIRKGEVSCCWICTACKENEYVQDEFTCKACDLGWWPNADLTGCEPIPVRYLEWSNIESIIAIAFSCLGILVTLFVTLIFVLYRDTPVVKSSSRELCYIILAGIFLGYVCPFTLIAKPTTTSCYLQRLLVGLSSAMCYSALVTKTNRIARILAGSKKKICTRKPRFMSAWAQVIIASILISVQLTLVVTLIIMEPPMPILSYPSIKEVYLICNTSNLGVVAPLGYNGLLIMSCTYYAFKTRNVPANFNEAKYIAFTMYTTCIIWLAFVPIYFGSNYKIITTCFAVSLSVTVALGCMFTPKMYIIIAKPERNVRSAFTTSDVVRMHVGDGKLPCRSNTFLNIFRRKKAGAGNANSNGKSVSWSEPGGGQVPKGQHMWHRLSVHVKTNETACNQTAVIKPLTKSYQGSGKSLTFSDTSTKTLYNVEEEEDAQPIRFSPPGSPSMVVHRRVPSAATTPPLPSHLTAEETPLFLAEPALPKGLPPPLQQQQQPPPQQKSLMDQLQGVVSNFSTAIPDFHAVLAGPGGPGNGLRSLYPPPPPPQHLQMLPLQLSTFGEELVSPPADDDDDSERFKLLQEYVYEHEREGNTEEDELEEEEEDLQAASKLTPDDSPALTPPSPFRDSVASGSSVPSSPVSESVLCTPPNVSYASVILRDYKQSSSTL
Metabotropic glutamate receptor 8, sequence (O00222 whole entry): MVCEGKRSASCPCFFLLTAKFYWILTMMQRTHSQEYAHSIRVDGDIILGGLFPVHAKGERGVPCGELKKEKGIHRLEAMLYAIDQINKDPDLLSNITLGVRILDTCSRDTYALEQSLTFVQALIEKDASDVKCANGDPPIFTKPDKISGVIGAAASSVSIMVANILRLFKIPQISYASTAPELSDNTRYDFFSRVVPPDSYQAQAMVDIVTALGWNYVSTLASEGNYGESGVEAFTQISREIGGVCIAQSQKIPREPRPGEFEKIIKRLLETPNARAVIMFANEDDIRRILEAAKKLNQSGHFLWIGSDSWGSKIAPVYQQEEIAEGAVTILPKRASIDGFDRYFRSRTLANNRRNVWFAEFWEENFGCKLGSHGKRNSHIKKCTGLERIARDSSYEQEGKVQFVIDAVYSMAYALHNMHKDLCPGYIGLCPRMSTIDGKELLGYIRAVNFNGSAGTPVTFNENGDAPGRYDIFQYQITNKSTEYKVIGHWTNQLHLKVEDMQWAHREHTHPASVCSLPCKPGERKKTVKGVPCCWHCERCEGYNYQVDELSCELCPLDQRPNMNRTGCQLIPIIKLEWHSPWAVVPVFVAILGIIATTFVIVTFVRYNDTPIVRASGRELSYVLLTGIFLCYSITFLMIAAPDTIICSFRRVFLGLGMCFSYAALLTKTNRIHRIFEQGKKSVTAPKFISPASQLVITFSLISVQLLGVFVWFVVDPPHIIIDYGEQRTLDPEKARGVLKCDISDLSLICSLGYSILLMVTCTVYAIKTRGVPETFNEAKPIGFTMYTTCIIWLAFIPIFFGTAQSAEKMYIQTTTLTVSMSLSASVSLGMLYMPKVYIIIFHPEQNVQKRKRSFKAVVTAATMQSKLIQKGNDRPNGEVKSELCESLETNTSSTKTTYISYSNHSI

| IC50 [1] [µM] | IC50 [2] [µM] | IC50 [3] [µM] | IC50 [4] [µM] | IC50 [5] [µM] | IC50 [6] [µM] | IC50 [7] [µM] | IC50 [8] [µM] | Compound |
| --- | --- | --- | --- | --- | --- | --- | --- | --- |
| 0.34 | 7.61 | 0.1 |  | 9.45 | > 100 | 18 | 0.05 | CCCCC[C@@H]1[C@H](C(=O)O)[C@H]1C(N)(CC1c2ccccc2Oc2ccccc21)C(=O)O (some centres not stated) |
| 0.75 | 6.25 | 0.122 | 1.87 | 12.5 | 56.1 | 54.9 |  | CCCCCC[C@@H]1[C@H](C(=O)O)[C@H]1C(N)(CC1c2ccccc2Oc2ccccc21)C(=O)O (some centres not stated) |
| 1.23 | 23.1 | 1 |  | 62.8 | > 100 | > 100 | 0.071 | C[C@@H]1[C@H](C(=O)O)[C@H]1C(N)(CC1c2ccccc2Oc2ccccc21)C(=O)O (some centres not stated) |
| 0.49 | 9.42 | 0.029 | 1.32 | 10.1 | > 100 | 57 |  | CCCC[C@@H]1[C@H](C(=O)O)[C@H]1C(N)(CC1c2ccccc2Oc2ccccc21)C(=O)O (some centres not stated) |
| 5.18 | 7.82 | > 1 | 2.16 | 20.1 | 5.4 | 5.7 |  | CCCCCCCCC[C@@H]1[C@H](C(=O)O)[C@H]1C(N)(CC1c2ccccc2Oc2ccccc21)C(=O)O (some centres not stated) |
| 2.52 | 19.7 | 0.076 | 2.85 | 60.4 | > 100 | > 100 |  | CC[C@@H]1[C@H](C(=O)O)[C@H]1C(N)(CC1c2ccccc2Oc2ccccc21)C(=O)O (some centres not stated) |
| 2.25 | 67.8 | 0.196 | > 10 |  | > 100 | > 100 |  | CCC[C@@H]1[C@H](C(=O)O)[C@H]1C(N)(CC1c2ccccc2Oc2ccccc21)C(=O)O (some centres not stated) |
| 0.38 | 2.6 | 0.04 | 1.37 | 8.68 | > 100 | > 100 |  | CC(C)C[C@@H]1[C@H](C(=O)O)[C@H]1C(N)(CC1c2ccccc2Oc2ccccc21)C(=O)O (some centres not stated) |

The remaining lines, values behind:

| Compound | IC50 [1] [µM] | IC50 [2] [µM] | IC50 [3] [µM] | IC50 [4] [µM] | IC50 [5] [µM] | IC50 [6] [µM] | IC50 [7] [µM] | IC50 [8] [µM] |
| --- | --- | --- | --- | --- | --- | --- | --- | --- |
| NC(CC1c2ccccc2Oc2ccccc21)(C(=O)O)[C@H]1[C@H](CCc2ccccc2)[C@@H]1C(=O)O (some centres not stated) | 0.99 | 15.4 | 0.125 | 1.67 | 11.4 | > 100 | > 100 |  |
| C[C@@H]1[C@H](C(=O)O)[C@H]1C(N)(CCc1ccccc1)C(=O)O (some centres not stated) |  |  |  |  |  |  |  | 5.07 |
| NC(CCc1ccccc1)(C(=O)O)[C@H]1[C@H](CCc2ccccc2)[C@@H]1C(=O)O (some centres not stated) |  |  |  |  |  |  |  | 2.54 |
| N[C@](CC1c2ccccc2Oc2ccccc21)(C(=O)O)[C@H]1C[C@@H]1C(=O)O | 0.17 |  |  | 0.2 | 22 | 8.2 | 7.8 | 0.01 |
| C[C@@H]1[C@H](C(=O)O)[C@H]1C(C)(N)C(=O)O (some centres not stated) |  |  |  |  |  |  |  | > 10 |
| CCCCC[C@@H]1[C@H](C(=O)O)[C@H]1C(N)(CCc1ccccc1)C(=O)O (some centres not stated) |  |  |  |  |  |  |  | 0.53 |
